Here are results for 59 compounds from US6506876B1, “LTA4 hydrolase inhibitor pharmaceutical compositions and methods of use” (G.D. Searle & Co., priority 1994, dated 2003).

Like-named read-outs stand apart in the source and are kept apart here.

For experiment [1], the target named is T1, recombinant human LTA4 hydrolase (rhLTA4H) (Homo sapiens, UniProt P09960).
T1 sequence (P09960 1-611): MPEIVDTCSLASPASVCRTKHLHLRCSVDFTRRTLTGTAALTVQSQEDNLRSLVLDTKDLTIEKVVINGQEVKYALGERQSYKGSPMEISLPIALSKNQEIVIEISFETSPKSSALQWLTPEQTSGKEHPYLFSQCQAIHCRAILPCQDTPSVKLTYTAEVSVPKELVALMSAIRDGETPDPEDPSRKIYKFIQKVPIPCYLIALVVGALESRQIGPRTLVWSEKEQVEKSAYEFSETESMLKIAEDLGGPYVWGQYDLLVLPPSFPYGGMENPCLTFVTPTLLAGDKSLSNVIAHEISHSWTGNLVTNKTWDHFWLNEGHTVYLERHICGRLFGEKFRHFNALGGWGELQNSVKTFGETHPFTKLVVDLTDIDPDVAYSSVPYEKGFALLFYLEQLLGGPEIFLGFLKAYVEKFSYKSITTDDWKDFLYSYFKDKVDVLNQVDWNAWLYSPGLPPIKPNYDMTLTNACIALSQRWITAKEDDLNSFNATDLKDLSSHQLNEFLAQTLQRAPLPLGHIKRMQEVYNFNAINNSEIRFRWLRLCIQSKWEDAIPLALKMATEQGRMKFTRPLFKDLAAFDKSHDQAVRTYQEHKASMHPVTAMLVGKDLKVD
As to the kind of experiment: Recombinant human LTA4 hydrolase assay for LTA4 hydrolase inhibitor activity. Particulars: for IC50: Recombinant Human LTA4 Hydrolase Assay IC50 LTA4H, recombinant hLTA4H; for inhibition at 100 µM: read-out: Recombinant Human LTA4 Hydrolase Assay, % at 100 μM; for inhibition at 3 µM: read-out: Recombinant Human LTA4 Hydrolase Assay, % at 3 μM.
Description: One or more predetermined amounts of a compound of the invention were incubated in assay buffer (0.1 M potassium phosphate, 5 mg/ml fatty acid free BSA, 10% DMSO, pH 7.4) for 10 minutes at room temperature with 250 ng of recombinant hLTA4H to allow binding, if any, between the enzyme and inhibitor. The stock enzyme solution was 1 mg/ml LTA4 hydrolase, 50 mM Tris, pH 8.0, 150 mM NaCl, 2.5 mM beta-mercaptoethanol, 50% glycerol. […] Each reaction was carried out at room temperature for 10 minutes. The reaction was stopped by diluting 25 μl of the reaction mixture with 500 μl of the assay buffer without DMSO. LTB4 was quantified in the diluted sample by a commercially available enzyme-linked immunoassay [Caymen Chemical Co., Ann Arbor, Mich.] using the method recommended in the manufacturer's instructions and compared to the amount of LTB4 produced in a negative control (i.e., essentially identical conditions except without addition of an inhibitor compound). The IC50 was routinely calculated from the data produced.

For experiment [2], the system named is LTB4 production in mouse blood (LTA4 hydrolase). The experiment in a line: Ex vivo LTB4 production by calcium ionophore stimulated mouse blood after oral dosing. Format: in vivo. Here is the method:
Ex Vivo LTB4 and Thromboxane Production by Calcium Ionophore Stimulated Mouse Blood for LTA4 Hydrolase Inhibitor Activity
Leukotriene A4 hydrolase inhibitor compounds of the present invention were diluted to a predetermined concentration in phosphate buffered saline containing 2% DMSO and 1% Tween 80. The compounds were administered by oral gavage to adult male outbred mice weighing approximately 20-30 gm at a dose of 10 mg/kg body weight. (Compounds given at a dose of 50 mg/kg body weight are designtated in following Table by the symbol, *.) Sixty (60) minutes after administration of an LTA4 inhibitor compound of the invention, blood was collected (into heparin-containing tubes) from the retroorbital sinus. […] The mixture was incubated for 10 minutes at 37° C. in a humidified incubator. The reaction was terminated by centrifugation (833 g, 10 minutes at 4° C.). Supernatants were analyzed for LTB4 and thromboxane by commercially available enzyme-linked immunoassays (Caymen Chemical Co., Ann Arbor, Mich.] in accordance with the manufacturer's instructions. The percent inhibition was determined by comparison to animals treated identically except that the solution admininstered by oral gavage was devoid of inhibitor compound.

Where [3] appears, read: mouse, oral gavage, 1 hour after administration of 10 mg/kg; read-out: Murine Ex Vivo LTB4 Inhibition % I LTB4.
Setting [4] is: Mus musculus, po, 1 h, read-out: Murine Ex Vivo LTB4 Inhibition % I LTB4.
Setting [5] is: Mus musculus, po, 1 h; read-out: Murine Ex Vivo LTB4 Inhibition % I LTB4.

Take `C[C@@H]1C[C@H](C(N)=O)CCN1CCOc1ccc(Cc2ccccc2)cc1` (relative stereo) [Example 297]: in experiment [1], the IC50 (usually the concentration that inhibits the measured activity by half) amounted to 120 nM. Also, in experiment [2] (setting [3]), the inhibition in vivo at 10 mg/kg is 63%.

`C[C@H]1C[C@@H](O)CCN1CCOc1ccc(Cc2ccccc2)cc1` (relative stereo) [Example 465]: the IC50 in experiment [1] stood at 300 nM. For the same compound, the inhibition in vivo at 10 mg/kg in experiment [2] (setting [3]) was determined as 38%. As to `CC(=O)N[C@@H]1CCN(CCOc2ccc(Cc3ccccc3)cc2)[C@@H](C)C1` (relative stereo) [Example 467], in experiment [1], the concentration for half-maximal inhibition (IC50) worked out at 60 nM. Also, in experiment [2] (setting [3]), the inhibition in vivo at 10 mg/kg was determined as 71%. Take `c1ccc(Cc2ccc(OCCCn3cnc4ncccc43)cc2)cc1` [341 B]: the IC50 in experiment [1] stood at 140 nM. Moreover, the inhibition in vivo at 10 mg/kg in experiment [2] (setting [3]) was 29%.

For `c1ccc(COc2ccc(OCCn3cnc4ncccc43)cc2)cc1` [346 B], the IC50 in experiment [1] came out at 1900 nM. Moreover, the inhibition in vivo at 10 mg/kg in experiment [2] (setting [3]) was 23%. In the case of `c1ccc(COc2ccc(OCCn3cnc4ccncc43)cc2)cc1` [347 A], the IC50 in experiment [1] turned out to be 1800 nM. Also, the inhibition in vivo at 10 mg/kg in experiment [2] (setting [3]) worked out at 34%. Turning to `c1ccc(COc2ccc(OCCn3cnc4cnccc43)cc2)cc1` [347 B], the IC50 in experiment [1] was found to be 1900 nM. Further, in experiment [2] (setting [3]), the inhibition in vivo at 10 mg/kg was 43%. In the case of `c1ccc(COc2ccc(OCCn3ccc4ncnc-4c3)cc2)cc1` [347 C], the IC50 in experiment [1] was determined as 5 nM. The inhibition in vivo at 10 mg/kg in experiment [2] (setting [3]) is 52%. Take `c1ccc(Oc2ccc(OCCn3cnc4cccnc43)cc2)cc1` [348 A]: the half-inhibitory concentration (IC50) in experiment [1] came to 4600 nM. Moreover, the inhibition in vivo at 10 mg/kg in experiment [2] (setting [3]) worked out at 42%.

With `c1ccc(Oc2ccc(OCCn3cnc4ncccc43)cc2)cc1` [348 B], in experiment [1], the IC50 was 440 nM. Further, the inhibition in vivo at 10 mg/kg in experiment [2] (setting [3]) amounted to 22%. The matching figures for `c1ccc(Oc2ccc(OCCn3cccc4ncnc3-4)cc2)cc1` [348 C]: 290 nM and 77%. As for `c1ccc(Oc2ccc(OCCN3CCCC3)cc2)cc1` [Example 44], the inhibition in vivo at 10 mg/kg in experiment [2] (setting [4]) was 25%. Consider `c1nc(Cc2ccc(OCCN3CCCC3)cc2)cs1` [Example 49, 4-[[4-[2-(1-pyrrolidinyl)ethoxy]phenyl]methyl]thiazole], for which the inhibition in vivo at 10 mg/kg in experiment [2] (setting [4]) was found to be 46%. `FC(F)(c1ccccc1)c1ccc(OCCN2CCCC2)cc1` [Example 67, 1-[2-[4-[(difluoro)phenylmethyl]phenoxy]ethyl]pyrrolidine]: the “Murine Ex Vivo LTB4 Inhibition % I LTB4” value in experiment [2] (mouse, oral gavage, 1 hour after administration of 10 mg/kg) is reported as 0%.

In the case of `c1ccc(Cc2ccc(OCCN3CCCC3)nc2)cc1` [Example 112], in experiment [2] (setting [4]), the inhibition in vivo at 50 mg/kg was 82%.

In the case of `c1csc(Cc2ccc(OCCN3CCCC3)cc2)n1` [Example 121], the inhibition in vivo at 10 mg/kg in experiment [2] (setting [4]) was found to be 48%. For `c1ncc(Cc2ccc(OCCN3CCCC3)cc2)s1` [Example 122], in experiment [2] (setting [4]), the inhibition in vivo at 10 mg/kg came to 57%. Turning to `c1cncc(Cc2ccc(OCCN3CCCC3)cc2)c1` [Example 125], in experiment [2] (setting [4]), the inhibition in vivo at 10 mg/kg amounted to 46%.

On to `c1cc(Cc2ccc(OCCN3CCCC3)cc2)cs1` [Example 134], for which the inhibition in vivo at 10 mg/kg in experiment [2] (setting [4]) was found to be 63%. For the compound `COC(=O)CC1CCN(CCOc2ccc(Cc3ccccc3)cc2)C1` (stereo not shown) [Example 275], in experiment [2] (setting [3]), the inhibition in vivo at 10 mg/kg came to 75%. Consider `COC(=O)C1CCN(CCOc2ccc(Cc3ccccc3)cc2)C1` (stereo not shown) [Example 276], for which the inhibition in vivo at 10 mg/kg in experiment [2] (setting [3]) was determined as 75%.

`COC(=O)CC1CC2CC1CN2CCOc1ccc(Cc2ccccc2)cc1` (stereo not shown) [Example 304]: the inhibition in vivo at 10 mg/kg in experiment [2] (setting [4]) was determined as 80%. With `O=C(CNCCOc1ccc(Cc2ccccc2)cc1)OCc1ccccc1` [Example 319], in experiment [1], the inhibition at 100 µM came to 47%.

`COC(=O)CCN(C)CCCOc1ccc(Cc2ccc(F)cc2)cc1` [Example 332]: the IC50 in experiment [1] came out at 14000 nM. Take `CN(CCCOc1ccc(Cc2ccc(F)cc2)cc1)CCC(=O)O` [Example 336]: the inhibition in vivo at 10 mg/kg in experiment [2] (setting [5]) turned out to be 99%.

Consider `c1ccc(Cc2ccc(OCCn3ccc4ncccc43)cc2)cc1` [Example 342], for which the IC50 in experiment [1] worked out at 970 nM. Regarding `c1ccc(Oc2ccc(OCCCn3cnc4ccccc43)cc2)cc1` [Example 343], the inhibition at 3 µM in experiment [1] came out at 40%. As for `c1ccc(Oc2ccc(OCCn3cnc4ccccc43)cc2)cc1` [Example 344], in experiment [1], the IC50 stood at 11100 nM.

Regarding `c1ccc(COc2ccc(OCCn3cnc4ccccc43)cc2)cc1` [Example 345], the inhibition at 3 µM in experiment [1] amounted to 35%.

Turning to `c1ccc(Cc2ccc(OCCn3ccnc3)cc2)cc1` [Example 352], the IC50 in experiment [1] is 120 nM. The same measure, in the same setting: with `[O-][n+]1ccc2ncn(CCOc3ccc(Cc4ccccc4)cc3)c2c1` [Example 364] the figure was 36 nM; with `O=C(O)C1CCN(CCOc2ccc(Cc3ccccc3)s2)CC1` [Example 371], 860 nM.

For `c1ccc(Cc2ccc(OCCN3CCCCC3)cc2)cc1` [Example 401], the inhibition in vivo at 10 mg/kg in experiment [2] (setting [4]) turned out to be 23%.

On to `CC1CCCC(C)N1CCOc1ccc(Cc2ccccc2)cc1` (stereo not shown) [Example 402], for which the inhibition in vivo at 10 mg/kg in experiment [2] (setting [4]) was 58%. Regarding `CC(CN1CCCCC1)Oc1ccc(Cc2ccccc2)cc1` (stereo not shown) [Example 403], in experiment [1], the IC50 amounted to 750 nM. Turning to `C#CC(CC(=O)OCC)NCCOc1ccc(Cc2ccccc2)cc1` (stereo not shown) [Example 408], the inhibition at 100 µM in experiment [1] was determined as 76%. `C=CCN(CCCOc1ccc(Cc2ccccc2)cc1)CCC(=O)OCc1ccccc1` [Example 409]: the 50% inhibitory concentration (IC50) in experiment [1] came out at 12000 nM.

For the compound `C=CCN(CCCCOc1ccc(Cc2ccccc2)cc1)CCC(=O)OCC` [Example 410, Ethyl [[4-[4-(Phenylmethyl)phenoxyl]-butyl](2-propenyl)amino]propanoate], the IC50 in experiment [1] came to 33000 nM. On to `CN(CCCOc1ccc(Cc2ccccc2)cc1)CCC(=O)OCc1ccccc1` [Example 411], for which, in experiment [1], the IC50 was 2400 nM.

As to `CCOC(=O)CCN(C)CCCOc1ccc(Cc2ccccc2)cc1` [Example 412], the inhibition in vivo at 10 mg/kg in experiment [2] (setting [3]) turned out to be 72%.

For the compound `CCOC(=O)CCN(CCCOc1ccc(Cc2ccccc2)cc1)Cc1cccnc1` [Example 414], the IC50 in experiment [1] stood at 11000 nM. Still for that read-out and setting: the same measure for `CCOC(=O)CCN(C)CCCCOc1ccc(Cc2ccccc2)cc1` [Example 415]: 5000 nM; for `CC(CN(C)CCCOc1ccc(Cc2ccccc2)cc1)C(=O)OCc1ccccc1` (stereo not shown) [Example 417]: 4300 nM; for `CN(CCCOc1ccc(Cc2ccccc2)cc1)CC(C)(C)C(=O)OCc1ccccc1` [Example 418]: 12000 nM.

For the compound `CNC(=O)C1CCN(CCOc2ccc(Cc3ccccc3)cc2)CC1` [Example 420], in experiment [2] (setting [5]), the inhibition in vivo at 10 mg/kg is 93%. Regarding `NC(=O)CCNC(=O)C1CCN(CCOc2ccc(Cc3ccccc3)cc2)CC1` [Example 421], the IC50 in experiment [1] came out at 410 nM. As to `NC(=O)CCNCCCOc1ccc(Cc2ccccc2)cc1` [Example 423], the IC50 in experiment [1] is 330 nM. Take `NC(=O)CC1CCN(CCOc2ccc(Cc3ccccc3)cc2)C1` (stereo not shown) [Example 426]: the inhibition in vivo at 10 mg/kg in experiment [2] (setting [3]) was determined as 40%. For `O=C(O)C1CCN(CCOc2ccc(Cc3cccc(F)c3)cc2)CC1` [Example 436], the IC50 in experiment [1] came to 720 nM. Take `O=C(O)C1CCN(CCOc2ccc(Cc3ccc(F)cc3)cc2)CC1` [Example 438]: the half-inhibitory concentration (IC50) in experiment [1] amounted to 3200 nM.

Regarding `O=C(O)C1CCN(CCOc2ccc(Cc3ccsc3)cc2)CC1` [Example 439], the IC50 in experiment [1] was 18000 nM. In the case of `COC(=O)C1CC2CC1CN2CCOc1ccc(Cc2ccccc2)cc1` (stereo not shown) [Example 440], in experiment [1], the IC50 is 30 nM. Same read-out and setting: the same measure for `CC1CC(C#N)CCN1CCOc1ccc(Cc2ccccc2)cc1` (stereo not shown) [Example 444]: 300 nM; for `CC1CC(C(N)=NO)CCN1CCOc1ccc(Cc2ccccc2)cc1` (stereo not shown) [Example 445]: 330 nM; for `N=C(N)C1CCN(CCOc2ccc(Cc3ccccc3)cc2)CC1` [Example 449]: 140 nM.

`c1ccc(Cc2ccc(OCCN3CCC(c4nnn[nH]4)CC3)cc2)cc1` [Example 450]: in experiment [2] (setting [4]), the inhibition in vivo at 10 mg/kg was found to be 91%. For the compound `NC(=S)N1CCN(CCOc2ccc(Cc3ccccc3)cc2)CC1` [Example 458], the IC50 in experiment [1] came to 560 nM. As for `CS(=O)(=O)N1CCN(CCOc2ccc(Cc3ccccc3)cc2)CC1` [Example 460], the IC50 in experiment [1] worked out at 84000 nM. Take `COC(=O)C1CC2CC1CN(CCOc1ccc(Cc3ccccc3)cc1)C2` (stereo not shown) [Example 504]: the IC50 in experiment [1] turned out to be 29 nM.
